Where a name gives a salt, the structure may show the parent alone. Read-outs that look alike come from different tables or passages of the source.

For one series, the system named is bovine coagulated blood. As to the kind of experiment: Decoloring screening: heme eluted from bovine coagulated blood (OD420-OD700). To be noted: decolorization; for 700 nm calibrated 420 nm Average: OD420 calibrated by OD700; for integrated value 500-700 nm Average: integrated absorbance 500-700 nm. Here is the method:
A high-throughput screening system for evaluating the decoloring ability of various compounds was constructed. The screening system involved adding an aqueous solution of each compound to bovine coagulated blood and then measuring the absorbance of heme collected in the supernatant.
Specifically, to bovine blood, an equal amount of 8% PFA solution was added, and reacted at 4° C. overnight. The mixed liquid was centrifuged at 1500×g for 5 minutes, and the supernatant containing PFA was discarded. Then, the same amount of PBS as the original volume of blood was added to prepare a coagulated blood sample. To 150 μL of 10 wt % aqueous solution of each compound, 50 μL of the coagulated blood sample was added, and reacted at 37° C. overnight. The reaction solution was centrifuged at 1500×g for 5 minutes, and then 100 μL of the supernatant was added to a plate so as to be subjected to absorbance measurement. A sample which is suspended in water instead of being dissolved in the water has a weak decoloring effect, but none the less has a high absorbance value. […]

The conditions of series [1]: for 400 nm: OD at 400 nm of the chemical.

For the compound `Cl.NC1(C(=O)O)CCC1` [#0473, 1-Aminocyclobutanecarboxylic acid hydrochloride], the pH (Table 4) is given as 2.18.

Regarding `Cl.O=C(O)CCP(CCC(=O)O)CCC(=O)O` [#0197, Tris(2-carboxyethyl) phosphine hydrochloride], in the series on bovine coagulated blood, the “700 nm calibrated 420 nm Average” value was found to be 4.28 and the “integrated value 500-700 nm Average” value turned out to be 3.89. Moreover, the “Fluorescence quench Average” value in the series with Serius is recorded as −0.05.

For the compound `NCCCOCCCN` [#0394, Bis(3-aminopropyl) ether], where the note is “[…]”, the pH is 13.2. Besides, in the series on bovine coagulated blood, the “700 nm calibrated 420 nm Average” value was 3.27 and the “integrated value 500-700 nm Average” value was 1.85. This compound displayed a 400 nm in series [1] of 0.067. The “Fluorescence quench Average” value with Serius (relative fluorescence) was found to be 0.54.

`F[N+]12CC[N+](CCl)(CC1)CC2` [#1608, N-Fluoro-N′-(chloromethyl) triethylenediamine bis (tetrafluoroborate)] yielded a pH (Table 4) of 5.19.

As for `CCCCCCC(O)CO` (centres unmarked) [#1109, 1,2-Octanediol], the pH (Table 4) is listed as 6.00.

`CN1CCN(Cc2ccc(C(=O)O)cc2)CC1` [#0916, 4-[(4-Methyl-1-piperazinyl)methyl]benzoic acid dihydrochloride] registered a pH (Table 4) of 2.80.

Turning to `c1cnc(N2CCNCC2)nc1` [#1167, 1-(2-Pyrimidyl) piperazine], the pH ([…]) is on record as 12.5. In the series with bovine coagulated blood, the “700 nm calibrated 420 nm Average” value was 1.39 and the “integrated value 500-700 nm Average” value stood at 1.09. This compound also yielded a 400 nm in series [1] of 0.084. The “Fluorescence quench Average” value in the series on Serius (relative fluorescence) stood at 0.01.

Take `COc1ccc(CO)cc1OC` [#1422, Veratryl alcohol]: the pH ([…]) was found to be 6.1. In addition, in the series on bovine coagulated blood, the “700 nm calibrated 420 nm Average” value is on record as 1.46 and the “integrated value 500-700 nm Average” value was found to be 1.28. The same compound gave a 400 nm in series [1] of 0.05. In addition, the “Fluorescence quench Average” value with Serius (relative fluorescence) came to 0.89.

With `O=C(O)CC(S)C(=O)O` (centres unmarked) [#1302, Thiomalic acid], under “Table 4”, the pH was 2.68.

Turning to `O=C1O[C@H](CO)[C@@H](O)[C@H](O)[C@H]1O` [#0963, D-(+)-Glucono-1,5-lactone], where the note is “Table 4”, the pH was determined as 2.69.

Turning to `C[n+]1ccc(-c2cc[n+](C)cc2)cc1` [#0652, 1,1′-Dimethyl-4,4′-bipyridinium dichloride], in the series with bovine coagulated blood, the “700 nm calibrated 420 nm Average” value is 2.01 and the “integrated value 500-700 nm Average” value was 2.01. Also, in the series with Serius, the “Fluorescence quench Average” value was found to be 0.42.

`O=C(O)CC(O)C(=O)O` (racemic) [#1300, DL-Malic acid] returned a pH (Table 4) of 2.34.

`O=C(O)CCNCCNCCC(=O)O` [#0936, Ethylenediamine-N,N′- dipropionic acid dihydrochloride]: the pH (Table 4) is 2.22.

`O=C(O)CC(CC(=O)O)C(=O)O` [#1094, 1,2,3-Propanetri-carboxylic acid] showed a pH (Table 4) of 2.69.

On to `c1cnccn1` [#1086], for which the pH ([…]) was determined as 8.6. In addition, in the series on bovine coagulated blood, the “700 nm calibrated 420 nm Average” value amounted to 1.41 and the “integrated value 500-700 nm Average” value is 1.39. The compound also gave a 400 nm in series [1] of 0.051. Also, the “Fluorescence quench Average” value with Serius (relative fluorescence) is 0.67.

For `C=CCC(=O)O` [#0073, 3-Butenoic acid], under “Table 4”, the pH stood at 3.43.

`CC(O)CN(CCN(CC(C)O)CC(C)O)CCN(CC(C)O)CC(C)O` (centres unmarked) [#1105, N,N,N′,N″,N″-Pentakis(2-hydroxypropyl) diethylene-triamine] showed a pH ([…]) of 13.2. Further, in the series on bovine coagulated blood, the “700 nm calibrated 420 nm Average” value is recorded as 1.20 and the “integrated value 500-700 nm Average” value came out at 1.05. The compound also gave a 400 nm in series [1] of 0.057. For the same compound, the “Fluorescence quench Average” value in the series with Serius (relative fluorescence) worked out at 0.74.

In the case of `CCCCCCCCCCCCCC[N+](C)(C)Cc1ccccc1` [#0362], in the series with Serius, the “Fluorescence quench Average” value worked out at 1.07.

`CC(=O)N[C@@H](CS)C(=O)O` [#0346, N-Acetyl- L-cysteine] yielded a pH (Table 4) of 2.86.

In turn, `O=C(O)CCO` [#0155, 3-Hydroxypropionic acid] came in with a pH (Table 4) of 3.66.

For the compound `N[C@@H](CS(=O)(=O)O)C(=O)O` [#0745, L-cysteic acid], where the note is “Table 4”, the pH was 2.11.

In turn, `N#CCC(=O)O` [#1569, Cyanoacetic acid] registered a pH (Table 4) of 2.61.

Regarding `O=CNCC(=O)O` [#0942, N-Formylglycine], for the setting “Table 4”, the pH was 2.67.

Consider `NC[C@H](O)[C@@H](O)[C@H](O)[C@H](O)CO` [#0956, D-Glucamine, reference compound], for which the pH (Table 3) is recorded as 12.3. Besides, the OD400 in series [1] (Table 3) is listed as 0.260.

`C1CCC2=NCCCN2CC1` [#0594, 1,8-Diazabicyclo [5.4.0]-7-undecene]: in the series on bovine coagulated blood, the “700 nm calibrated 420 nm Average” value is listed as 3.13 and the “integrated value 500-700 nm Average” value is 1.94. Besides, in the series on Serius, the “Fluorescence quench Average” value is given as 0.54.

Take `[Cl-].c1ccc(C[P+](c2ccccc2)(c2ccccc2)c2ccccc2)cc1` [#0425, Benzyltriphenyl-phosphonium chloride]: in the series with bovine coagulated blood, the “700 nm calibrated 420 nm Average” value turned out to be 1.14 and the “integrated value 500-700 nm Average” value stood at 0.83. Also, in the series on Serius (relative fluorescence), the “Fluorescence quench Average” value was determined as 0.35.

Take `O=C(O)[C@@H](O)c1ccccc1Cl` [#0746, 2-Chloro-L-mandelic acid]: for the setting “Table 4”, the pH was 2.14.

For the compound `OCCCCCl` [#1365, 4-Chloro-1-butanol (contains tetrahydrofuran)], the pH (Table 4) stood at 3.08.

For `OCCCCBr` [#1366, 4-Bromo-1-butanol (contains tetrahydrofuran)], the pH (Table 4) stood at 2.31.

Consider `CC[n+]1ccccc1Br` [#1562, 2-Bromo-1-ethylpyridinium tetrafluoroborate], for which the pH (Table 4) is 3.92.

For `OCCN1CC1` [#1061], in the series with bovine coagulated blood, the “700 nm calibrated 420 nm Average” value is reported as 1.14 and the “integrated value 500-700 nm Average” value is given as 0.91. Also, the “Fluorescence quench Average” value in the series with Serius is listed as 0.80.

The compound `CC(=O)N(CC(O)CO)c1c(I)c(C(=O)NCC(O)CO)c(I)c(C(=O)NCC(O)CO)c1I` (centres unmarked) [Histodenz ™, reference compound] registered a pH (Table 3) of 7.3. In series [1] (Table 3), this compound gave an OD400 of 0.054.

`CCCCCCCCCCCCCCCC[N+](C)(C)C.[Cl-]` [#1235, Hexadecyltrimethyl- ammonium chloride]: in the series on bovine coagulated blood, the “700 nm calibrated 420 nm Average” value is recorded as 2.85 and the “integrated value 500-700 nm Average” value came to 2.71. The “Fluorescence quench Average” value in the series with Serius worked out at 1.06.

In turn, `Cl.NC1CCSC1=O` (racemic) [#1213, DL-Homocysteinethiolactone hydrochloride] registered a pH (Table 4) of 2.31.

Regarding `CN(CCCN)CCCN` [#0380], in the series on bovine coagulated blood, the “700 nm calibrated 420 nm Average” value is listed as 2.62 and the “integrated value 500-700 nm Average” value came to 1.58. The “Fluorescence quench Average” value in the series with Serius (relative fluorescence) was determined as 0.62.

Under “Table 4”, `Cl.NOCc1ccccc1` [#0429, O-Benzylhydroxylamine hydrochloride] displayed a pH of 4.10.

Under “Table 1”, `CCCCCCCCCCCC(=O)N(C)CC(=O)[O-].[Na+]` [#1466, Sodium N- lauroylsarcosinate] came in with a pH of 6.1. Further, the OD400 in series [1] (Table 1) is reported as 0.05.

For the compound “Dodecyldimethyl(3- sulfopropyl)ammonium [#0661]”, in the series with bovine coagulated blood, the “700 nm calibrated 420 nm Average” value was found to be 2.10 and the “integrated value 500-700 nm Average” value was 1.70. In series [1], this compound registered a 400 nm of 0.051. This compound also gave an OD400 in series [1] (Table 1) of 0.051. Moreover, the “Fluorescence quench Average” value with Serius (relative fluorescence) is given as 1.13.

Turning to `CCOC(=O)[C@H]1CC[C@H](O)CC1` [#0216, Ethyl trans-4-hydroxy-cyclohexanecarboxylate], the pH (Table 4) is reported as 5.68.

In turn, `O=C(O)CCCCBr` [#0074, 5-Bromovaleric acid] had a pH (Table 4) of 2.39.

The compound `CCCCCCCCC(=O)[O-].[Na+]` [#0865, Sodium nonanoate] showed a pH (Table 1) of 8.9. Also, the OD400 in series [1] (Table 1) is listed as 0.051.

As to `CSCCC(NC(C)=O)C(=O)O` (racemic) [#0360, N-Acetyl- DL-methionine], the pH (Table 4) is reported as 2.75.

Turning to `CCN(CC)CCO` [#1575, 2-Diethylamino-ethanol], in the series on bovine coagulated blood, the “700 nm calibrated 420 nm Average” value was determined as 2.41 and the “integrated value 500-700 nm Average” value is given as 1.21. In the series with Serius, the “Fluorescence quench Average” value is reported as 0.61.

`Cl.N=C(N)Nc1ccc(C(=O)O)cc1` [#1249, 4-Guanidino benzoic acid hydrochloride]: where the note is “Table 4”, the pH is on record as 4.22.

With `O=S(=O)(O)c1cccnc1` [#1165, Pyridine-3-sulfonic acid], the pH (Table 4) is on record as 2.21.

In turn, `O=C(O)C(C(=O)O)C1CCCC1` [#0762, Cyclopentyl malonic acid] had a pH (Table 4) of 2.74.

Take `O=C(O)[C@H](O)[C@@H](O)[C@H](O[C@@H]1O[C@H](CO)[C@H](O)[C@H](O)[C@H]1O)[C@H](O)CO` [#1010, Lactobionic acid]: the pH (Table 4) came to 2.63.

For `CC(C)(C)CC(C)(C)c1ccc(OCCOCC[N+](C)(C)Cc2ccccc2)cc1` [#0441, Benzethonium Chloride], in the series with bovine coagulated blood, the “700 nm calibrated 420 nm Average” value is 3.40 and the “integrated value 500-700 nm Average” value stood at 2.80. Further, in the series on Serius, the “Fluorescence quench Average” value was found to be 1.08.

For the compound `O=C(O)CCCCCl` [#0062, 5-Chlorovaleric acid], the pH (Table 4) was 2.86.

For the compound `CSCC[C@H](NC(C)=O)C(=O)O` [#0350, N-Acetyl- L-methionine], the pH (Table 4) was found to be 2.74.

As to `O=C(O)/C=C/c1ccc(Cn2ccnc2)cc1` [#1108, Ozagrel hydrochloride hydrate], the pH (Table 4) came to 4.92.

Under “Table 4”, `CN(C)CCC(=O)O.Cl` [#0702, 3-(Dimethylamino) propionic acid hydrochloride] gave a pH of 2.17.

(Values after patent publication US20220381657A1, “METHOD FOR PREPARING BIOLOGICAL MATERIAL HAVING EXCELLENT LIGHT-TRANSMITTING PROPERTY” (RIKEN, priority 2016, published 2022).)
